This note sets out measurements from patent US20260285857A1, “BICYCLIC AND HETEROCYCLIC AMIDE COMPOUNDS” (priority 2024, published 2026).

SMILES strings stand for the structures.

The assay has as its system immunoglobulin light chain protein WIL-FL T46L. Nature of the assay: Differential scanning fluorimetry (thermal shift) assay. It is filed as binding. The following applies: Table A; temperature shift [Tm]compound-[Tm]vehicle; recombinant WIL-FL T46L.

For the molecule `Cc1cc(N2CC[C@](C)(c3ccccc3)C2)cn2nc(C(=O)N3CC4C3CCCN4c3cccc(C(=O)O)n3)nc12` (stereo partly shown) [Compound 247], the DSF result is “***** (>2.5° C.=*****)”.

With `Cc1cc(N2CC[C@](C)(c3ccccc3)C2)cn2nc(C(=O)N3CCC4(CCN(c5cccc(N)n5)C4)C3)nc12` (stereo partly shown) [Compound 248], the DSF result was “***** (>2.5° C.=*****)”.

In the case of `Cc1cc(N2CC[C@](C)(c3ccccc3)C2)cn2nc(C(=O)N3CC4CN(c5cccc(C(=O)O)n5)CC4(C(F)(F)F)C3)nc12` (stereo partly shown) [Compound 249], the DSF entry was “***** (>2.5° C.=*****)”.

For `Cc1cc(N2CC[C@](C)(c3ccccc3)C2)cn2nc(C(=O)N3Cc4nc(-c5cccc(C(=O)O)n5)oc4C3)nc12` [Compound 250], the DSF entry is reported as “***** (>2.5° C.=*****)”.

Turning to `Cc1cc(N2CCC(NC(=O)c3nc4c(C)cc(N5CC[C@](C)(c6ccccc6)C5)cn4n3)CC2)cc(C(=O)O)n1` [Compound 251], the DSF entry was “***** (>2.5° C.=*****)”.

For `Cc1cc(N2CC[C@](C)(c3ccccc3)C2)cn2nc(C(=O)N3C[C@@]4(C)CN(c5cccc(C(=O)O)n5)C[C@@]4(C)C3)nc12` [Compound 252], the DSF result was “***** (>2.5° C.=*****)”.

In the case of `Cc1cc(N2CC[C@](C)(c3ccccc3)C2)cn2nc(C(=O)N3CCC4(CCN(c5ncno5)C4)C3)nc12` (stereo partly shown) [Compound 253], the DSF entry is “***** (>2.5° C.=*****)”.

In the case of `Cc1cc(N2CC[C@](C)(c3ccccc3)C2)cn2nc(C(=O)NC3CCC(c4cccc(C(=O)O)n4)OC3)nc12` (stereo partly shown) [Compound 254], the DSF result is “***** (>2.5° C.=*****)”.

Consider `Cc1cc(N2CC[C@](C)(c3ccccc3)C2)cn2nc(C(=O)N3CC4CN(c5cccc(C(=O)O)n5)CC4(C(N)=O)C3)nc12` (stereo partly shown) [Compound 255], for which the DSF entry is “***** (>2.5° C.=*****)”.

In the case of `Cc1cc(N2CC[C@](C)(c3ccccc3)C2)cn2nc(C(=O)N3CCC4(CCN(c5ccnc(C(=O)O)c5)C4)C3)nc12` (stereo partly shown) [Compound 257], the DSF result was “***** (>2.5° C.=*****)”.

With `Cc1cc(N2CC[C@](C)(c3ccccc3)C2)cn2nc(C(=O)N3CCC4(CCN(c5cccc(C(=O)O)n5)C4)C3)nc12` (stereo partly shown) [Compound 258], the DSF result is recorded as “***** (>2.5° C.=*****)”.

For `Cc1cc(N2CC[C@](C)(c3ccccc3)C2)cn2nc(C(=O)N3CCOCC34CN(c3cccc(C(=O)O)n3)C4)nc12` [Compound 259], the DSF entry is given as “***** (>2.5° C.=*****)”.

For the molecule `Cc1cc(N2CC[C@](C)(c3ccccc3)C2)cn2nc(C(=O)N3CC4(CCN4Cc4cccc(C(=O)O)n4)C3)nc12` [Compound 260], the DSF entry was “***** (>2.5° C.=*****)”.

In the case of `Cc1cc(N2CC[C@](C)(c3ccccc3)C2)cn2nc(C(=O)NC3CCN(c4cccc(C(=O)O)n4)CC3(C)C)nc12` (stereo partly shown) [Compound 261], the DSF entry was “***** (>2.5° C.=*****)”.

Take `Cc1cc(N2CC[C@](C)(c3ccccc3)C2)cn2nc(C(=O)Nc3ccnc(C(=O)O)c3)nc12` [Compound 262]: the DSF result is “***** (>2.5° C.=*****)”.

With `COC(=O)c1cc(N2CCC(NC(=O)c3nc4c(C)cc(N5CC[C@](C)(c6ccccc6)C5)cn4n3)CC2)ccn1` [Compound 263], the DSF entry is given as “***** (>2.5° C.=*****)”.

For `Cc1cc(N2CC[C@](C)(c3ccccc3)C2)cn2nc(C(=O)NC3CCN(c4ccnc(C(=O)O)c4)CC3)nc12` [Compound 264], the DSF result is reported as “***** (>2.5° C.=*****)”.

For the molecule `Cc1cc(N2CC[C@](C)(c3ccccc3)C2)cn2nc(C(=O)NC3CCN(c4cccnc4C(=O)O)CC3)nc12` [Compound 265], the DSF entry is “***** (>2.5° C.=*****)”.

Turning to `Cc1cc(N2CC[C@](C)(c3ccccc3)C2)cn2nc(C(=O)N3CCC4(CCN(c5ccnc(C(=O)O)n5)C4)C3)nc12` (stereo partly shown) [Compound 266], the DSF result is given as “***** (>2.5° C.=*****)”.

As to `Cc1cc(N2CC[C@](C)(c3ccccc3)C2)cn2nc(C(=O)N3CC[C@@]4(CCN(c5cccc(C(=O)O)n5)C4)C3)nc12` [Compound 267], the DSF entry is listed as “***** (>2.5° C.=*****)”.

For the molecule `Cc1cc(N2CC[C@](C)(c3ccccc3)C2)cn2nc(C(=O)N3CC[C@]4(CCN(c5cccc(C(=O)O)n5)C4)C3)nc12` [Compound 268], the DSF result is listed as “***** (>2.5° C.=*****)”.

With `Cc1cc(N2CC[C@](C)(c3ccccc3)C2)cn2nc(C(=O)NC3CCC(O)(c4cccc(C(=O)O)n4)CC3)nc12` (stereo partly shown) [Compound 269], the DSF result is “***** (>2.5° C.=*****)”.

Regarding `Cc1cc(N2CC[C@](C)(c3ccccc3)C2)cn2nc(C(=O)N3CC[C@]4(CCN(c5cc(C(=O)O)ccn5)C4)C3)nc12` [Compound 270], the DSF entry is listed as “***** (>2.5° C.=*****)”.

With `Cc1cc(N2CC[C@](C)(c3ccccc3)C2)cn2nc(C(=O)NC3CCN(c4ccc(C(=O)O)nc4)C3)nc12` (stereo partly shown) [Compound 271], the DSF result was “***** (>2.5° C.=*****)”.

As for `Cc1cc(N2CC3(CC(NC(=O)c4nc5c(C)cc(N6CC[C@](C)(c7ccccc7)C6)cn5n4)C3)C2)cc(C(=O)O)n1` [Compound 272], the DSF entry is “***** (>2.5° C.=*****)”.

Consider `Cc1cc(N2CC[C@](C)(c3ccccc3)C2)cn2nc(C(=O)NC3CCN(c4cccc(C(=O)O)c4)CC3)nc12` [Compound 273], for which the DSF entry is reported as “***** (>2.5° C.=*****)”.

For `Cc1cc(N2CC[C@](C)(c3ccccc3)C2)cn2nc(C(=O)NC3CN(c4cccc(C(=O)O)n4)CCC3(C)C)nc12` (stereo partly shown) [Compound 274], the DSF result is recorded as “***** (>2.5° C.=*****)”.

With `Cc1cc(N2CC[C@](C)(c3ccccc3)C2)cn2nc(C(=O)NC3CCN(c4cccc(C(=O)O)n4)CC3)nc12` [Compound 276], the DSF result is given as “***** (>2.5° C.=*****)”.

Consider `Cc1cc(N2CC[C@](C)(c3ccccc3)C2)cn2nc(C(=O)NC3CCN(c4ccnc(C(=O)O)c4)C3)nc12` (stereo partly shown) [Compound 277], for which the DSF entry is reported as “***** (>2.5° C.=*****)”.

Consider `Cc1cc(N2CC[C@](C)(c3ccccc3)C2)cn2nc(C(=O)N3CC4CN(c5ccnc(C(=O)O)c5)CC4C3)nc12` (stereo partly shown) [Compound 278], for which the DSF result is recorded as “***** (>2.5° C.=*****)”.

`Cc1cc(N2CC[C@](C)(c3ccccc3)C2)cn2nc(C(=O)N3C[C@H]4C[C@@H]3C[C@H]4Oc3cccc(C(=O)O)n3)nc12` [Compound 280]: the DSF entry is listed as “***** (>2.5° C.=*****)”.

Regarding `Cc1cc(N2CC[C@](C)(c3ccccc3)C2)cn2nc(C(=O)N3CC45CN(c6cccc(C(=O)O)n6)CC4(C3)C5)nc12` (stereo partly shown) [Compound 281], the DSF entry is listed as “***** (>2.5° C.=*****)”.

For `Cc1cc(N2CC[C@](C)(c3ccccc3)C2)cn2nc(C(=O)NC3(C)CCN(c4ccnc(C(=O)O)c4)CC3)nc12` [Compound 282], the DSF entry was “***** (>2.5° C.=*****)”.

Regarding `Cc1cc(N2CC[C@](C)(c3ccccc3)C2)cn2nc(C(=O)NC3CCN(c4ccnc(S(C)(=N)=O)c4)CC3)nc12` (stereo partly shown) [Compound 283], the DSF result is “***** (>2.5° C.=*****)”.

`Cc1cc(N2CC[C@](C)(c3ccccc3)C2)cn2nc(C(=O)NC3CCN(c4ccnc(-c5nnn[nH]5)c4)CC3)nc12` [Compound 284]: the DSF result is given as “***** (>2.5° C.=*****)”.

Regarding `Cc1cc(N2CC[C@](C)(c3ccccc3)C2)cn2nc(C(=O)NC3CCN(c4cccc(-c5nnn[nH]5)n4)CC3)nc12` [Compound 285], the DSF entry is reported as “***** (>2.5° C.=*****)”.

Consider `Cc1cc(N2CC[C@](C)(c3ccccc3)C2)cn2nc(C(=O)N3CCOC4(C3)CN(c3cccc(C(=O)O)n3)C4)nc12` [Compound 286], for which the DSF result is given as “***** (>2.5° C.=*****)”.

`Cc1cc(N2CC[C@](C)(c3ccccc3)C2)cn2nc(C(=O)N3CC4CN(c5cccc(C(=O)O)n5)CC(C3)O4)nc12` [Compound 287]: the DSF result is reported as “***** (>2.5° C.=*****)”.

Turning to `Cc1cc(N2CC[C@](C)(c3ccccc3)C2)cn2nc(C(=O)N3CCCN(c4cccc(C(=O)O)n4)CCC3)nc12` [Compound 288], the DSF entry is on record as “***** (>2.5° C.=*****)”.

With `Cc1cc(N2CC[C@](C)(c3ccccc3)C2)cn2nc(C(=O)N3CCC4(CCN(C5CCCC(C(=O)O)C5)C4)C3)nc12` (stereo partly shown) [Compound 289], the DSF result is on record as “***** (>2.5° C.=*****)”.

On to `Cc1noc(N2CCC(NC(=O)c3nc4c(C)cc(N5CC[C@](C)(c6ccccc6)C5)cn4n3)CC2)n1` [Compound 290], for which the DSF result is given as “***** (>2.5° C.=*****)”.

For `Cc1cc(N2CC3(CCC3c3ccccc3)C2)cn2nc(C(=O)N3C[C@@H]4CN(c5cccc(C(=O)O)n5)C[C@@H]4C3)nc12` (stereo partly shown) [Compound 291], the DSF entry is “***** (>2.5° C.=*****)”.

`CNC(=O)c1cc2c(N)cc(N3CC[C@](C)(c4ccccc4)C3)cn2n1` [Compound 292]: the DSF result was “*** (>1-1.5° C.=***)”.

For `C[C@]1(c2ccccc2)CCN(c2cc(O)c3nc(C(=O)N4CC[C@@]5(CCN(c6cccc(C(=O)O)n6)C5)C4)nn3c2)C1` [Compound 293], the DSF result was “**** (>1.5-2.5° C.=****)”.

For `COc1cc(N2CC[C@](C)(c3ccccc3)C2)cn2nc(C(=O)N3CC[C@@]4(CCN(c5cccc(C(=O)O)n5)C4)C3)nc12` [Compound 294], the DSF result is recorded as “***** (>2.5° C.=*****)”.

As to `Cc1cc(N2CCC(C)(O)C2)cn2nc(C(=O)N3CC4CN(c5cccc(C(=O)O)n5)CC4C3)nc12` (stereo not shown) [Compound 295], the DSF result is on record as “* (0-0.5° C.=*)”.

With `Cc1cc(N2CCC(C)(C3CC4(CCC4)C3)C2)cn2nc(C(=O)N3C[C@@H]4CN(c5cccc(C(=O)O)n5)C[C@@H]4C3)nc12` (stereo partly shown) [Compound 296], the DSF entry is “** (>0.5-1 °C =**)”.

In the case of `Cc1cc(N2CC3CC2(c2ccccc2)C3)cn2nc(C(=O)N3C[C@@H]4CN(c5cccc(C(=O)O)n5)C[C@@H]4C3)nc12` [Compound 297], the DSF entry was “* (0-0.5° C.=*)”.

As to `Cc1cc(N2CC(C)(C)C(C)(c3ccccc3)C2)cn2nc(C(=O)N3C[C@@H]4CN(c5cccc(C(=O)O)n5)C[C@@H]4C3)nc12` (stereo partly shown) [Compound 298], the DSF entry was “** (>0.5-1 °C =**)”.

In the case of `Cc1nsc(C2(C)CCN(c3cc(C)c4nc(C(=O)N5C[C@@H]6CN(c7cccc(C(=O)O)n7)C[C@@H]6C5)nn4c3)C2)n1` (stereo partly shown) [Compound 299], the DSF result is “*** (>1-1.5° C.=***)”.

As to `Cc1noc(C2(C)CCN(c3cc(C)c4nc(C(=O)N5C[C@@H]6CN(c7cccc(C(=O)O)n7)C[C@@H]6C5)nn4c3)C2)n1` (stereo partly shown) [Compound 300], the DSF result is “*** (>1-1.5° C.=***)”.

Regarding `Cc1nnc(C2(C)CCN(c3cc(C)c4nc(C(=O)N5C[C@@H]6CN(c7cccc(C(=O)O)n7)C[C@@H]6C5)nn4c3)C2)s1` (stereo partly shown) [Compound 301], the DSF entry was “* (0-0.5° C.=*)”.
